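Each compound was tested at five concentrations against cells in 96-well plates for 48 hours. TGI: concentration producing complete growth inhibition.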
Assays:
Assay in all cases: NCI anticancer screen, dose series, 48 h
[1] = system: SK-MEL-2 melanoma
[2] = system: BT-549 breast
[3] = system: IGROV1 ovarian
[4] = system: K-562 leukemia
[5] = system: A549 NSCLC
[6] = system: MDA-MB-231 breast
[7] = system: MALME-3M melanoma
[8] = system: SNB-19 CNS
[9] = system: NCI-H23 lung
[10] = system: CAKI-1 renal
[11] = system: HCT-116 colon
[12] = system: M14 melanoma
[13] = system: OVCAR-5 ovarian
[14] = system: HT29 colon
[15] = system: U251 CNS
[16] = system: HOP-92 NSCLC
[17] = system: SW-620 colon
[18] = system: SF-268 CNS
[19] = system: NCI/ADR-RES ovarian
[20] = system: HCC-2998 colon
[21] = system: UACC-257 melanoma
[22] = system: HCT-15 colon
[23] = system: OVCAR-4 ovarian
[24] = system: OVCAR-3 ovarian
[25] = system: MDA-MB-435
[26] = system: SF-295 CNS
[27] = system: SK-OV-3 ovarian
[28] = system: HOP-62 NSCLC
[29] = system: OVCAR-8 ovarian
[30] = system: CCRF-CEM leukemia
[31] = system: RXF 393 renal
[32] = system: LOX IMVI melanoma
[33] = system: COLO 205 colon
[34] = system: SK-MEL-28 melanoma
[35] = system: DU-145 prostate
[36] = system: NCI-H522 lung
[37] = system: MOLT-4 leukemia
[38] = system: TK-10 renal
[39] = system: A498 renal
[40] = system: SK-MEL-5 melanoma
[41] = system: SR leukemia
[42] = system: 786-0 renal
[43] = system: NCI-H460 lung
[44] = system: T-47D breast
[45] = system: SF-539 CNS
[46] = system: ACHN renal
[47] = system: KM12 colon
[48] = system: SN12C renal
[49] = system: EKVX NSCLC
[50] = system: UACC-62 melanoma
[51] = system: MCF7 breast
[52] = system: PC-3 prostate
[53] = system: UO-31 renal
[54] = system: SNB-75 CNS
[55] = system: MDA-N
[56] = system: NCI-H226 lung
[57] = system: HS 578T breast
[58] = system: RPMI-8226 leukemia
[59] = system: HL-60(TB) leukemia

For `COC(=O)C(/C(=N\O)C(=O)Nc1cccc(Cl)c1C)c1cnc2ccccc2n1` (stereo unspecified), the TGI [1] was greater than 100 µM, the TGI [2] was greater than 100 µM and the TGI [3] was greater than 100 µM. It also gave a TGI [4] greater than 100 µM, a TGI [5] greater than 100 µM and a TGI [6] greater than 100 µM. The TGI [7] was greater than 100 µM, the TGI [8] was greater than 100 µM and the TGI [9] was greater than 100 µM. The TGI [10] was greater than 100 µM, the TGI [11] was greater than 100 µM and the TGI [12] was greater than 100 µM. It also gave a TGI [13] greater than 100 µM, a TGI [14] greater than 100 µM and a TGI [15] greater than 100 µM. It also gave a TGI [16] greater than 100 µM, a TGI [17] greater than 100 µM and a TGI [18] greater than 100 µM. For the same compound, the TGI [19] was greater than 100 µM, the TGI [20] was greater than 100 µM and the TGI [21] was greater than 100 µM. The TGI [22] was greater than 100 µM, the TGI [23] was greater than 100 µM and the TGI [24] was greater than 100 µM. For the same compound, the TGI [25] was greater than 100 µM, the TGI [26] was greater than 100 µM and the TGI [27] was greater than 100 µM. The TGI [28] was greater than 100 µM, the TGI [29] was greater than 100 µM and the TGI [30] was greater than 100 µM. It also gave a TGI [31] greater than 100 µM, a TGI [32] greater than 100 µM and a TGI [33] greater than 100 µM. It also gave a TGI [34] greater than 100 µM, a TGI [35] greater than 100 µM and a TGI [36] greater than 100 µM. The TGI [37] was greater than 100 µM, the TGI [38] was greater than 100 µM and the TGI [39] was greater than 100 µM. It also gave a TGI [40] greater than 100 µM, a TGI [41] greater than 100 µM and a TGI [42] greater than 100 µM. The TGI [43] was greater than 100 µM, the TGI [44] was greater than 100 µM and the TGI [45] was greater than 100 µM. The TGI [46] was greater than 100 µM, the TGI [47] was greater than 100 µM and the TGI [48] was greater than 100 µM. It also gave a TGI [49] greater than 100 µM, a TGI [50] greater than 100 µM and a TGI [51] greater than 100 µM. It also gave a TGI [52] greater than 100 µM, a TGI [53] greater than 100 µM and a TGI [54] greater than 100 µM. For the same compound, the TGI [55] was greater than 100 µM and the TGI [56] was greater than 100 µM.

`NS(=O)(=O)c1cccc(NC(=S)NC(=O)Nc2ccc(Cl)c(Cl)c2)c1` gave a TGI [1] of 40.2 µM, a TGI [2] of 32.1 µM and a TGI [3] of 45.4 µM. It also gave a TGI [4] of 37.2 µM, a TGI [5] of 61.4 µM and a TGI [6] of 38.5 µM. The TGI [7] was 29.4 µM, the TGI [8] was 58.2 µM and the TGI [57] was 45.6 µM. It also gave a TGI [9] of 34 µM, a TGI [11] of 31.4 µM and a TGI [12] of 28.2 µM. It also gave a TGI [13] of 84 µM, a TGI [58] of 41.7 µM and a TGI [14] of 86.6 µM. It also gave a TGI [15] of 39.6 µM, a TGI [16] of 54 µM and a TGI [17] of 37.9 µM. The TGI [18] was 56.4 µM, the TGI [19] was 36.1 µM and the TGI [21] was greater than 100 µM. It also gave a TGI [22] of 33.6 µM, a TGI [23] of 76.9 µM and a TGI [26] of 44.7 µM. For the same compound, the TGI [27] was 54.1 µM, the TGI [28] was 30.9 µM and the TGI [29] was 32.5 µM. For the same compound, the TGI [30] was 78.1 µM, the TGI [31] was 58.9 µM and the TGI [32] was 33.4 µM. For the same compound, the TGI [33] was 35.4 µM, the TGI [34] was 42.9 µM and the TGI [35] was 97.9 µM. For the same compound, the TGI [36] was 28.6 µM, the TGI [37] was 37.6 µM and the TGI [38] was greater than 100 µM. The TGI [39] was 26.3 µM, the TGI [40] was 30.8 µM and the TGI [42] was 30.3 µM. It also gave a TGI [43] of 44.6 µM, a TGI [44] of 67.6 µM and a TGI [45] of 38.1 µM. It also gave a TGI [46] of 48.7 µM, a TGI [47] of 31.4 µM and a TGI [48] of 32.6 µM. The TGI [50] was 26 µM, the TGI [51] was 37.1 µM and the TGI [52] was 41.2 µM. It also gave a TGI [53] of 37.8 µM, a TGI [54] of 54.9 µM and a TGI [55] of 38.2 µM.

`Cc1cnc2c(c1)C(=O)C1=C(C2=O)C2OC(=O)CC2OC1(C)C` (stereo unspecified) gave a TGI [1] of 2.76 µM, a TGI [2] of 0.363 µM and a TGI [3] of 0.424 µM. The TGI [5] was 5.62 µM, the TGI [6] was 0.35 µM and the TGI [7] was 0.191 µM. It also gave a TGI [8] of 2.61 µM, a TGI [57] of 0.693 µM and a TGI [9] of 0.986 µM. For the same compound, the TGI [10] was 0.405 µM, the TGI [11] was 0.399 µM and the TGI [12] was 0.824 µM. For the same compound, the TGI [13] was 0.951 µM, the TGI [14] was 1.25 µM and the TGI [15] was 0.519 µM. It also gave a TGI [16] of 0.384 µM, a TGI [17] of 0.768 µM and a TGI [18] of 0.623 µM. It also gave a TGI [20] of 0.822 µM, a TGI [21] of 0.469 µM and a TGI [22] of 0.202 µM. The TGI [23] was 0.359 µM, the TGI [24] was 0.153 µM and the TGI [25] was 0.912 µM. It also gave a TGI [26] of 2.68 µM, a TGI [27] of 2.77 µM and a TGI [28] of 2.58 µM. The TGI [29] was 2.19 µM, the TGI [30] was 0.151 µM and the TGI [31] was 0.507 µM. It also gave a TGI [33] of 0.326 µM, a TGI [59] of 0.0142 µM and a TGI [34] of 2.04 µM. For the same compound, the TGI [35] was 3.02 µM, the TGI [36] was 0.148 µM and the TGI [38] was 1.95 µM. The TGI [39] was 3.75 µM, the TGI [40] was 0.997 µM and the TGI [41] was 0.29 µM. For the same compound, the TGI [42] was 0.9 µM, the TGI [43] was 2.28 µM and the TGI [44] was 1.42 µM. It also gave a TGI [45] of 0.575 µM, a TGI [46] of 0.39 µM and a TGI [47] of 1.73 µM. It also gave a TGI [48] of 0.318 µM, a TGI [49] of 0.826 µM and a TGI [50] of 0.351 µM. It also gave a TGI [51] of 0.363 µM, a TGI [52] of 0.812 µM and a TGI [53] of 1.26 µM. For the same compound, the TGI [54] was 4.1 µM, the TGI [55] was 0.865 µM and the TGI [56] was 2.31 µM.
